According to patent US20250009742A1 (priority 2021, published 2025):
pIC50: −log10 of the molar value.

What was measured:
intracellular HBV DNA = assay: Real-time PCR for intracellular HBV DNA in HepAD38 cells; format: cell-based; conditions: Hepatitis B virus, HePAD38, 65 h, 65 hours treatment
Protocol: HepAD38 cells were cultured in DMEM medium (Welgene) supplemented with 200 unit/mL penicillin, 200 μg/mL streptomycin, and 10% FBS. During maintenance and passage, the cells were cultured together with 0.4 μg/mL tetracycline. Two days before the treatment with compounds for inducing HBV replication was started, the medium was replaced with a tetracycline-free complete growth medium. […]
HepAD38 cells were treated with a compound for 65 hours and then recovered, and intracellular HBV DNA was extracted therefrom according to the protocol in the DNeasy Blood & Tissue Kit (Qiagen). The primers and probes used to quantify HBV DNA were 5′-[…]-3′, 5′-[…]-3′, and 5′-/56-FAM/TGT CCT GGT/ZEN/TAT CGC TGG ATG TGT CT/3IABkFQ/-3′. The HBV DNA was amplified by real-time PCR assay using LightCycler 480 (Roche) (J. Virol., 2018, 92(16):e00339-18). All of the processes were confirmed in duplicate.

[1] = Cell viability assay (EZ-Cytox), cytotoxicity; format: cell-based; conditions: human, HepAD38 cells; for viability at 65 h, 100 µM: read-out: Cytotoxicity % Livability (@100 μM)
Protocol: HepAD38 cells were cultured for 2 days in Dulbecco's Modified Eagle's medium (Welgene, LM001-05) supplemented with 10% FBS without tetracycline. […] After 65 hours of treatment, viability was measured using EZ-Cytox cell viability assay kit (Daeil Lab Service) according to the manufacturer's instructions. The absorbance was measured at 450 nm using a spectrophotometer (Spark, Tecan).

SMILES	pIC50 (intracellular HBV DNA)	CC50 at 65 h [1] [nM]	viability at 65 h, 100 µM [1] [%]
COc1ncc(N(Cc2cc(C(F)(F)F)[nH]n2)C(=O)Nc2nccc(-n3ccnc3)c2F)cn1 [Example 3, 3-(3-fluoro-4-(1H-imidazol-1-yl)pyridin-2-yl)-1-(2-methoxypyrimidin-5-yl)-1-((5-(trifluoromethyl)-1H-pyrazol-3-yl)methyl)urea]	< 5.96	> 100000	74.2
COc1ncc(N(Cc2cc(C(F)(F)F)[nH]n2)C(=O)NC23CC(Cl)(C2)C3)cn1 [Example 6, 3-(3-chlorobicyclo[1.1.1]pentan-1-yl)-1-(2-methoxypyrimidin-5-yl)-1-((5-(trifluoromethyl)-1H-pyrazol-3-yl)methyl)urea]	< 5.96	> 100000	100
COc1ncc(N(Cc2cc(C(F)(F)F)[nH]n2)C(=O)Nc2ccc(C#N)c(Cl)c2)cn1 [Example 7, 3-(3-chloro-4-cyanophenyl)-1-(2-methoxypyrimidin-5-yl)-1-((5-(trifluoromethyl)-1H-pyrazol-3-yl)methyl)urea]	7.72	> 100000	59.3
COc1ncc(N(Cc2cc(C#N)[nH]n2)C(=O)Nc2ccc(C#N)c(Cl)c2)cn1 [Example 9]	6.51	> 100000	105
COc1ncc(N(Cc2cc(C(F)(F)F)[nH]n2)C(=O)Nc2cc(F)c(F)c(Cl)n2)cn1 [Example 13, 3-(6-chloro-4,5-difluoropyridin-2-yl)-1-(2-methoxypyrimidin-5-yl)-1-((5-(trifluoromethyl)-1H-pyrazol-3-yl)methyl)urea]	6.68	> 100000	100
CS(=O)(=O)Nc1ccc(N(Cc2n[nH]c3c2CCOC3)C(=O)Nc2ccc(F)c(Cl)c2)cc1 [Example 16, N-(4-(3-(3-chloro-4-fluorophenyl)-1-((1,4,5,7-tetrahydropyrano[3,4-c]pyrazol-3-yl)methyl)ureido)phenyl)methanesulfonamide]	< 5.96	97600	–
CS(=O)(=O)Nc1ccc(N(Cc2n[nH]c3c2CCOC3)C(=O)Nc2ccc(F)c(Cl)c2)cn1 [Example 17, N-(5-(3-(3-chloro-4-fluorophenyl)-1-((1,4,5,7-tetrahydropyrano[3,4-c]pyrazol-3-yl)methyl)ureido)pyridin-2-yl)methanesulfonamide]	< 5.96	> 100000	–
CS(=O)(=O)Nc1ccc(N(Cc2n[nH]c3c2CCCO3)C(=O)Nc2ccc(F)c(Cl)c2)cn1 [Example 18, N-(5-(3-(3-chloro-4-fluorophenyl)-1-((1,4,5,6-tetrahydropyrano[2,3-c]pyrazol-3-yl)methyl)ureido)pyridin-2-yl)methanesulfonamide]	< 5.96	> 100000	–
CS(=O)(=O)Nc1ccc(N(Cc2n[nH]c3c2CCCO3)C(=O)Nc2ccc(F)c(Cl)c2)cc1 [Example 19, N-(4-(3-(3-chloro-4-fluorophenyl)-1-((1,4,5,6-tetrahydropyrano[2,3-c]pyrazol-3-yl)methyl)ureido)phenyl)methanesulfonamide]	< 5.96	> 100000	–
CC(=O)c1ccc(N(Cc2n[nH]c3c2CCCO3)C(=O)Nc2ccc(F)c(Cl)c2)cn1 [Example 20, 1-(6-acetylpyridin-3-yl)-3-(3-chloro-4-fluorophenyl)-1-((1,4,5,6-tetrahydropyrano[2,3-c]pyrazol-3-yl)methyl)urea]	< 5.96	> 100000	–
CC(=O)c1ccc(N(Cc2n[nH]c3c2CCOC3)C(=O)Nc2ccc(F)c(Cl)c2)cn1 [Example 21, 1-(6-acetylpyridin-3-yl)-3-(3-chloro-4-fluorophenyl)-1-((1,4,5,7-tetrahydropyrano[3,4-c]pyrazol-3-yl)methyl)urea]	< 5.96	> 100000	–
CNS(=O)(=O)c1ccc(N(Cc2n[nH]c3c2CCOC3)C(=O)Nc2ccc(F)c(Cl)c2)cc1 [Example 23, 4-(3-(3-chloro-4-fluorophenyl)-1-((1,4,5,7-tetrahydropyrano[3,4-c]pyrazol-3-yl)methyl)ureido)-N-methylbenzenesulfonamide]	< 5.96	> 100000	–
Cn1cc(N(Cc2n[nH]c3c2CCCC3)C(=O)Nc2ccc(F)c(Cl)c2)cn1 [Example 24, 3-(3-chloro-4-fluorophenyl)-1-(1-methyl-1H-pyrazol-4-yl)-1-((4,5,6,7-tetrahydro-1H-indazol-3-yl)methyl)urea]	6.80	> 100000	53.4
Cn1ccc(N(Cc2n[nH]c3c2CCCO3)C(=O)Nc2ccc(F)c(Cl)c2)n1 [Example 25, 3-(3-chloro-4-fluorophenyl)-1-(1-methyl-1H-pyrazol-3-yl)-1-((1,4,5,6-tetrahydropyrano[2,3-c]pyrazol-3-yl)methyl)urea]	< 5.96	> 100000	100
Cc1cc(N(Cc2n[nH]c3c2CCCO3)C(=O)Nc2ccc(F)c(Cl)c2)no1 [Example 26, 3-(3-chloro-4-fluorophenyl)-1-(5-methylisoxazol-3-yl)-1-((1,4,5,6-tetrahydropyrano[2,3-c]pyrazol-3-yl)methyl)urea]	< 5.96	> 100000	93
COc1ncc(N(Cc2cc(C(F)(F)F)[nH]n2)C(=O)Nc2ccc(F)c(Cl)c2)c(C)n1 [Example 28, 3-(3-chloro-4-fluorophenyl)-1-(2-methoxy-4-methylpyrimidin-5-yl)-1-((5-(trifluoromethyl)-1H-pyrazol-3-yl)methyl)urea]	7.22	47200	7
COc1cc(C)c(N(Cc2cc(C(F)(F)F)[nH]n2)C(=O)Nc2ccc(F)c(Cl)c2)c(C)c1 [Example 29, 3-(3-chloro-4-fluorophenyl)-1-(4-methoxy-2,6-dimethylphenyl)-1-((5-(trifluoromethyl)-1H-pyrazol-3-yl)methyl)urea]	< 5.96	12200	6.9
COc1nc(C)c(N(Cc2cc(C(F)(F)F)[nH]n2)C(=O)Nc2ccc(F)c(Cl)c2)c(C)n1 [Example 30, 3-(3-chloro-4-fluorophenyl)-1-(2-methoxy-4,6-dimethylpyrimidin-5-yl)-1-((5-(trifluoromethyl)-1H-pyrazol-3-yl)methyl)urea]	< 5.96	> 100000	52.4
COc1ccc(N(Cc2nn(C)c3c2COCC3)C(=O)Nc2ccc(F)c(Cl)c2)cc1 [Example 39, 3-(3-chloro-4-fluorophenyl)-1-(4-methoxyphenyl)-1-((1-methyl-1,4,6,7-tetrahydropyrano[4,3-c]pyrazol-3-yl)methyl)urea]	6.48	> 100000	96
COc1ccc(N(Cc2n[nH]c3c2COCC3)C(=O)Nc2ccc(F)c(Cl)c2)cn1 [Example 55, 3-(3-chloro-4-fluorophenyl)-1-(6-methoxypyridin-3-yl)-1-((1,4,6,7-tetrahydropyrano[4,3-c]pyrazol-3-yl)methyl)urea]	7.77	> 100000	102
COc1ccc(N(Cc2nn(CCOC3CCCCO3)c3c2CCC3)C(=O)Nc2ccc(F)c(Cl)c2)cn1 (centres unmarked) [Example 66, 3-(3-chloro-4-fluorophenyl)-1-(6-methoxypyridin-3-yl)-1-((1-(2-(tetrahydro-2H-pyran-2-yloxy)ethyl)-1,4,5,6-tetrahydrocyclopenta[c]pyrazol-3-yl)methyl)urea]	< 6.52	81900	–
COc1ccc(N(Cc2nn(CCO)c3c2CCC3)C(=O)Nc2ccc(F)c(Cl)c2)cn1 [Example 67, 3-(3-chloro-4-fluorophenyl)-1-((1-(2-hydroxyethyl)-1,4,5,6-tetrahydrocyclopenta[c]pyrazol-3-yl)methyl)-1-(6-methoxypyridin-3-yl)urea]	< 6.52	> 100000	–
COc1ccc(N(Cc2n[nH]c3c2COC3)C(=O)Nc2ccc(F)c(Cl)c2)cn1 [Example 69, 3-(3-chloro-4-fluorophenyl)-1-((4,6-dihydro-1H-furo[3,4-c]pyrazol-3-yl)methyl)-1-(6-methoxypyridin-3-yl)urea]	7.68	> 100000	94.5
COc1cc(N(Cc2n[nH]c3c2COC3)C(=O)Nc2ccc(F)c(Cl)c2)ccn1 [Example 70, 3-(3-chloro-4-fluorophenyl)-1-((4,6-dihydro-1H-furo[3,4-c]pyrazol-3-yl)methyl)-1-(2-methoxypyridin-4-yl)urea]	8.05	> 100000	98
COc1cc(N(Cc2n[nH]c3c2OCCO3)C(=O)Nc2ccc(F)c(Cl)c2)ccn1 [Example 71, 3-(3-chloro-4-fluorophenyl)-1-((5,6-dihydro-1H-[1,4]dioxino[2,3-c]pyrazol-3-yl)methyl)-1-(2-methoxypyridin-4-yl)urea]	7.12	> 100000	–
COc1ccc(N(Cc2cc(C(F)F)[nH]n2)C(=O)Nc2ccc(F)c(Cl)c2)cn1 [Example 72, 3-(3-chloro-4-fluorophenyl)-1-((5-(difluoromethyl)-1H-pyrazol-3-yl)methyl)-1-(6-methoxypyridin-3-yl)urea]	7.32	> 66600	48.5
